# Laboratory results taken from patent US20240245707A1, “COMPOSITIONS FOR TREATING INSOMNIA AND USES THEREOF” (Zhejiang Jiachi Development Pharmaceuticals LTD., priority 2021, published 2024).
# Several values for one entry are separate records, joined by “and”; a condition that tells them apart may be missing. Equal values may be shown once. Entries after “also recorded” stand apart in the source; their conditions may differ.
# Legend:
# [1] = tested on: postmenopausal women having insomnia; assay: Self-assessment of insomnia with Athens Insomnia Scale (AIS) before and after taking anordrin; format: in vivo, human
# Procedure: Insomnia is usually measured using sleep disorder questionnaire (SDQ) such as Pittsburgh sleep quality index (PSQI), Epworth Sleeping Scale or the Athens Insomnia Scale (AIS), or using sleep quality monitor to count sleep dysfunction rating scale (SDRS). AIS is the one of popularly used SEQ. It is measured by assessing eight factors amongst which first five factors are related to nocturnal sleep and last three factors are related to daytime dysfunction. These are rated on a 0-3 scale and the sleep is finally evaluated from the cumulative score of all factors and reported as an individual's sleep outcome. Over the period of time, AIS is considered to be an effective tool in sleep analysis, and it is validated in various countries by testing it on local patients. A cut-off score of at least 6 on the AIS is used to establish the diagnosis of insomnia. See Soldatos C R, Dikeos D G, Paparrigopoulos T J (2002). “The diagnostic validity of the Athens Insomnia Scale”. J Psychosom Res. 55 (3): 263-7.
# Individuals who have taken anordrin (less than 1 mg) were self-assessed for the presence and the extent of insomnia before and after they took anordrin. Specifically, thirteen postmenopausal women took anordrin for about two weeks to a few months. Their sleep quality were evaluated with Athens Insomnia Scale (AIS).
# [2] = tested on: postmenopausal women with chronic insomnia; assay: Phase II clinical trial of α-anordrin enteric-coated tablets, Athens Insomnia Scale (AIS) index, preliminary results; format: in vivo, human
# Procedure: This Phase II clinical trial uses a randomized, double-blind, parallel-controlled design and is conducted in three clinical trial centers. A total of three drug groups are pre-set which are a) the 0.05 mg/day dosing group, b) the 0.1 mg/day dosing group, and c) the 0.15 mg/day dosing group as well as the placebo group. The drug intervention period is 8 weeks, and the drug intervention is followed up for 4 weeks. Primary efficacy endpoint includes vaginal detachment cell maturity index and dryness in postmenopausal women. Secondary efficacy endpoint includes quality in postmenopausal women, vaginal microecological index, vaginal pH in postmenopausal women, as well as the safety endpoint. The effectiveness and safety of different doses of α-anordrin tablets are preliminarily evaluated.
# Group 1 (0.05 mg dose group): daily oral administration of one 0.05 mg α-anordrin enteric-coated tablet. Group 2 (0.1 mg dose group): daily oral administration of one 0.1 mg α-anordrin enteric-coated tablet. Group 3 (0.15 mg dose group): daily oral administration of one 0.15 mg α-anordrin enteric-coated tablet. Group 4: placebo group. […]
# [3] = tested on: rat primary neuronal cells; assay: ATP level of neuronal cells treated with anordrin (ATP assay kit); format: cell-based; conditions: 10 nM anordrin, 24 hours, vs vehicle; FIG. 5
# Procedure: See Chikahisa et al., Front Neurol. 2011; 2: 87.
# Materials and equipment include cell culture medium, FBS and Charcoal stripped FBS, ATP assay kit (Thermofisher) and rat primary neuronal cells (Wuhan servisebio).
# Primary neuronal cells (2×10^6) were grew in medium containing 10% FBS in 6 well plates for 24 hours. Then the medium was replaced with phenol red free medium contain 5% Charcoal stripped FBS for 24 hours. 10 nM anordrin or vechile were added in medium for 24 hours, and then cells were harvested. The fluorescence density of ATP was assayed using ATP assay kit following manufacture's instruction.
smiles,measurement,setting,value
"C#C[C@@]1(OC(=O)CC)C[C@@H]2CC[C@@H]3[C@H](CC[C@@]4(C)[C@H]3CC[C@]4(C#C)OC(=O)CC)[C@@]2(C)C1 [anordrin, 2α, 17α-diethynyl-A-nor-5α-androstane-2β,17β-diol dipropionate]",decrease of the average number of AIS,"[1]; after vs before treatment, thirteen postmenopausal women",63%
same,postmenopausal women having insomnia that exhibited a significant improvement in sleeping,"[1]; anordrin at various dosages, Example 1",100%
same,numbers of AIS for each patient after treatment (in words),"[1]; thirteen postmenopausal women, FIG. 3 and Table 1",significantly decreased
same,Average # of AIS after treatment,"[1]; thirteen postmenopausal women, average before treatment 17.4, STDEV 1.2, p value <0.0001",6.3
same,AIS number (after treatment),"[2]; one patient per row, 0.05 mg/day oral, before treatment 12-19, preliminary results",4 and 5 (2×)
same,sleeping quality after treatment (in words),"[2]; three patients, 0.05 mg/day",significantly improved sleeping quality
same,ATP level of neuronal cells,[3],significantly increased; also recorded: induces ATP surge
